# Marks after values point to notes of the source that are not given here.
# Test: log P by HPLC on reversed-phase column (C 18), acidic range
# Format: physicochemical
# Method: Temperature: 43° C. […] The log P values given in Table 3 were determined in accordance with EEC Directive 79/831 Annex V.A8 by HPLC (High Performance Liquid Chromatography) on a reversed-phase column (C 18). Temperature: 43° C. […] The log P values given in Tables 4 were determined in accordance with EEC Directive 79/831 Annex V.A8 by HPLC (High Performance Liquid Chromatography) on a reversed-phase column (C 18). Temperature: 43° C.
row,Structure (SMILES),logP
1,COC(=O)c1ccc(Cl)c(Cn2nc(OCC(F)(F)F)n(C)c2=O)c1Cl [IV-8],logP = 2.72^a)
2,CCn1ncc(C(=O)c2ccc(F)c(Cn3nc(C)n(C)c3=O)c2Cl)c1O [Example 69],logP = 1.76^a)
3,Cc1nn(C)c(O)c1C(=O)c1ccc(Cl)c(Cn2nc(Br)n(C)c2=O)c1Cl [Example 39],logP = 1.52^a)
4,CCOc1nn(Cc2cc(C(F)(F)F)ccc2C(=O)c2cnn(CC)c2OCc2ccc(Cl)cc2)c(=O)n1C [ID-22],logP = 3.85^a)
5,CCOc1nn(Cc2c(Cl)ccc(C(=O)c3c(C)nn(C(C)(C)C)c3O)c2Cl)c(=O)n1C [Example 47],logP = 3.44^a)
6,COC(=O)c1ccc(Cl)c(Cn2nc(C3CC3)n(C3CC3)c2=O)c1Cl [IV-5],logP = 2.55^a)
7,CCOC(=O)c1ccc(C(F)(F)F)cc1Cn1nc(OC(C)C)n(C)c1=O [IV-70],logP = 3.51^a)
8,CCn1nc(C)c(C(=O)c2ccc(Cl)c(Cn3nc(C)n(C)c3=O)c2Cl)c1O [Example 45],logP = 1.40^a)
9,CCn1ncc(C(=O)c2ccc(C(F)(F)F)cc2Cn2nc(SC)n(C)c2=O)c1OCc1cccc(C(F)(F)F)c1 [ID-44],logP = 3.85^a)
10,CCOc1nn(Cc2cc(F)ccc2C(=O)c2c(C)nn(C)c2O)c(=O)n1C1CC1 [Example 11],(IA)logP = 1.80^a)
11,CCOC(=O)c1ccc(Br)cc1Cn1nc(OC(C)C)n(C)c1=O [IV-65],logP = 3.34^a)
12,CCn1ncc(C(=O)c2ccc(Cl)c(Cn3nc(C)n(C4CC4)c3=O)c2Cl)c1O [Example 36],(IB)logP = 1.64^a)
13,COC(=O)c1ccc(Cl)c(Cn2nc(C3CC3)n(C)c2=O)c1Cl [IV-11],logP = 2.16^a)
14,CCn1ncc(C(=O)c2ccc(C(F)(F)F)cc2Cn2nc(SC)n(C)c2=O)c1OCc1ccc(F)cc1 [ID-38],logP = 3.41^a)
15,CCOC(=O)c1ccc(Br)cc1Cn1nc(C(F)(F)F)n(C)c1=O [IV-35],logP = 3.40^a)
16,COC(=O)c1ccc(Cl)c(Cn2nc(OCC(F)(F)F)n(C3CC3)c2=O)c1Cl [IV-18],logP = 3.05^a)
17,CCOc1nn(Cc2cc(C(F)(F)F)ccc2C(=O)c2cnn(CC)c2OCc2ccc(Br)cc2)c(=O)n1C [ID-19],logP = 3.97^a)
18,CCOC(=O)c1ccc(C(F)(F)F)cc1Cn1nc(COC)n(C2CC2)c1=O [IV-77],logP = 2.88^a)
19,COC(=O)c1ccc(Cl)c(Cn2ncn(C)c2=O)c1Cl [IV-10],logP = 1.55^a)
20,CCOC(=O)c1ccc(Cl)cc1Cn1nc(CC)n(OCC)c1=O [IV-44],logP = 3.14^a)
21,CCOc1c(C(=O)c2ccc(C(F)(F)F)cc2Cn2nc(SC)n(C)c2=O)cnn1CC [ID-31],logP = 2.71^a)
22,CCOc1nn(Cc2ccc(C(=O)c3cnn(CC)c3O)c([N+](=O)[O-])c2OC)c(=O)n1C [Example 59],logP = 1.99^a)
23,CCOC(=O)c1ccc(Br)c(Cn2nc(C)n(C)c2=O)c1 [IV-38],logP = 2.06^a)
24,CCOC(=O)c1ccc(C(F)(F)F)cc1Cn1nc(N(C)C)n(C)c1=O [IV-85],logP = 2.79^a)
25,Cc1nn(C(C)(C)C)c(O)c1C(=O)c1ccc(Cl)c(Cn2nc(Br)n(C)c2=O)c1Cl [Example 49],logP = 3.19^a)
26,CCn1ncc(C(=O)c2ccc(C(F)(F)F)cc2Cn2nc(SC(C)C)n(C)c2=O)c1O [Example 6],logP = 2.90^a)
27,CCn1ncc(C(=O)c2ccc(C(F)(F)F)cc2Cn2nc(SC)n(C)c2=O)c1OCc1ccc(Br)cc1 [ID-36],logP = 3.89^a)

row,Structure (SMILES),logP
1,CCn1ncc(C(=O)c2ccc(F)c(Cn3nc(OC)n(C)c3=O)c2Cl)c1O [Example 71],logP = 1.55^a)
2,CCn1ncc(C(=O)c2ccc(S(C)(=O)=O)cc2Cn2nc(OCC(F)(F)F)n(C)c2=O)c1O [Example 68],logP = 1.73^a)
3,CCn1ncc(C(=O)c2ccc(Cl)c(Cn3nc(SC)n(C4CC4)c3=O)c2Cl)c1O [Example 35],(IB)logP = 2.27^a)
4,CCn1ncc(C(=O)c2ccc(Cl)c(Cn3nc(OCC(F)(F)F)n(C4CC4)c3=O)c2Cl)c1O [Example 34],(IB)logP = 2.65^a)
5,COc1nn(Cc2c(Cl)ccc(C(=O)c3cnn(C)c3O)c2Cl)c(=O)n1C [Example 57],logP = 1.48^a)
6,CCOC(=O)c1ccc(C(F)(F)F)cc1Cn1nc(Br)n(C2CC2)c1=O [IV-79],logP = 3.35^a)
7,CCOc1nn(Cc2c(Cl)ccc(C(=O)OC)c2Cl)c(=O)n1C1CC1 [IV-16],logP = 2.73^a)
8,CCOC(=O)c1ccc(C(F)(F)F)cc1Cn1cnn(C)c1=O [IV-74],logP = 2.68^a)
9,CCn1ncc(C(=O)c2ccc(Cl)c(Cn3nc(OC(C)C)n(C)c3=O)c2Cl)c1O [Example 22],logP = 2.31^a)
10,CCOC(=O)c1ccc(Br)cc1CN1C(=O)CCC1=O [IV-60],logP = 2.44^a)
11,CCn1ncc(C(=O)c2ccc(F)cc2Cn2nc(N(C)C)n(C)c2=O)c1O [Example 8],logP = 1.61^a)
12,CCOC(=O)c1ccc(F)cc1Cn1nc(OC)n(C2CC2)c1=O [IV-97],logP = 2.50^a)
13,COC(=O)c1ccc(Cl)c(Cn2nc3n(c2=O)CCCC3)c1Cl [IV-14],logP = 1.86^a)
14,COC(=O)c1ccc(Cl)c(Cn2nc(OC)n(C)c2=O)c1Cl [IV-6],logP = 2.04^a)
15,CCN1CCN(Cc2c(Cl)ccc(C(=O)c3cnn(C)c3O)c2Cl)C1=O [ID-54],logP = 1.62^a)
16,COc1nn(Cc2cc(F)ccc2C(=O)c2c(C)nn(C)c2O)c(=O)n1C1CC1 [Example 10],(IA)logP = 1.50^a)
17,CCOc1nn(Cc2c(Cl)ccc(C(=O)OC)c2Cl)c(=O)n1C [IV-4],logP = 2.38^a)
18,CCOC(=O)c1ccc(Br)cc1CN1CCOC1=O [IV-72],logP = 2.36^a)
19,CCSc1nn(Cc2cc(C(F)(F)F)ccc2C(=O)c2cnn(CC)c2O)c(=O)n1C [Example 5],logP = 2.58^a)
20,CCOC(=O)c1ccc(C(F)(F)F)cc1CN1N=C(C)C(C)(C)C1=O [IV-99],logP = 2.91^a)
21,CCOC(=O)c1ccc(F)cc1Cn1nc(SC)n(C)c1=O [IV-37],logP = 2.45^a)
22,CCOc1nn(Cc2c(Cl)ccc(C(=O)c3cnn(C)c3O)c2Cl)c(=O)n1C [Example 56],logP = 1.77^a)
23,CCn1ncc(C(=O)c2ccc(S(C)(=O)=O)cc2Cn2nc(SC)n(C)c2=O)c1O [Example 4],logP = 1.24^a)
24,CCn1ncc(C(=O)c2ccc(C(F)(F)F)cc2Cn2nc(SC)n(C)c2=O)c1OCc1ccc(C(F)(F)F)cc1 [ID-43],logP = 3.89^a)
25,CSc1nn(Cc2c(Cl)ccc(C(=O)c3c(C)nn(C)c3O)c2Cl)c(=O)n1C [Example 51],logP = 1.66^a)
26,CCn1ncc(C(=O)c2ccc(Cl)cc2-n2nc(C(F)(F)F)n(C)c2=O)c1O [Example 16],logP = 2.47^a)
27,CCn1ncc(C(=O)c2ccc(Cl)c(Cn3nc(SC)n(C)c3=O)c2F)c1O [Example 62],logP = 1.99^a)

row,Structure (SMILES),logP
1,CCOc1nn(Cc2cc(C(F)(F)F)ccc2C(=O)c2cnn(CC)c2OCc2cccc(Cl)c2)c(=O)n1C [ID-24],logP = 3.84^a)
2,CCOC(=O)c1ccc(Br)cc1Cn1nc(OCC(F)(F)F)n(C)c1=O [IV-67],logP = 3.31^a)
3,CCOC(=O)c1ccc(Br)cc1Cn1nc(N(C)C)n(C)c1=O [IV-82],logP = 2.60^a)
4,CCOC(=O)c1ccc(C(F)(F)F)cc1Cn1nc(CC)n(OCC)c1=O [IV-48],logP = 3.38^a)
5,CCOC(=O)c1ccc(Br)cc1Cn1nc(OCC)n(C)c1=O [IV-58],logP = 2.95^a)
6,CCn1ncc(C(=O)c2ccc(Cl)c(Cn3nc(C4CC4)n(C4CC4)c3=O)c2Cl)c1O [Example 20],(IB)logP = 2.14^a)
7,CCOc1nn(Cc2cc(C(F)(F)F)ccc2C(=O)c2cnn(CC)c2OS(C)(=O)=O)c(=O)n1C [ID-11],logP = 3.25^a)
8,Cc1nn(C)c(O)c1C(=O)c1ccc(Cl)c(CN2CCN(C)C2=O)c1Cl [ID-51],logP = 1.38^a)
9,CSc1nn(Cc2c(Cl)ccc(C(=O)c3c(C)nn(C(C)(C)C)c3O)c2Cl)c(=O)n1C [Example 46],logP = 3.30^a)
10,CCOc1nn(Cc2c(Cl)ccc(C(=O)c3cnn(CC)c3O)c2Cl)c(=O)n1C1CC1 [Example 32],(IB)logP = 2.31^a)
11,CCCOC(=O)c1ccc(C(F)(F)F)cc1Cn1nc(OCC)n(C2CC2)c1=O [IV-50],logP = 3.91^a)
12,COC(=O)c1ccc(Cl)c(CN2CCN(C)C2=O)c1Cl [IV-23],logP = 1.98^a)
13,CCOn1c(CC)nn(Cc2c(Cl)ccc(C(=O)OC)c2Cl)c1=O [IV-22],logP = 2.58^a)
14,CCOc1nn(Cc2c(Cl)ccc(C(=O)c3c(C)nn(C)c3O)c2Cl)c(=O)n1C [Example 52],logP = 1.76^a)
15,CCCOc1nn(Cc2cc(Br)ccc2C(=O)OCC)c(=O)n1C [IV-66],logP = 3.38^a)
16,CCOC(=O)c1ccc(C(F)(F)F)cc1Cn1nc(COC)n(C)c1=O [IV-78],logP = 2.60^a)
17,COC(=O)c1ccc(Cl)c(CN2CCCN(C)C2=O)c1Cl [IV-24],logP = 2.07^a)
18,Cc1nn(C)c(O)c1C(=O)c1ccc(Cl)c(Cn2nc(C)n(C)c2=O)c1Cl [Example 54],logP = 1.20^a)
19,CCOc1nn(Cc2cc(C(F)(F)F)ccc2C(=O)c2cnn(CC)c2OC)c(=O)n1C [ID-13],logP = 2.74^a)
20,CCOC(=O)c1ccc(Cl)cc1Cn1nc(SC)n(C)c1=O [IV-81],logP = 2.83^a)
21,CCOc1nn(Cc2cc(C(F)(F)F)ccc2C(=O)c2cnn(CC)c2OS(=O)(=O)c2ccc(C)cc2)c(=O)n1C [ID-9],logP = 3.82^a)
22,C=CCSc1nn(Cc2cc(Br)ccc2C(=O)c2cnn(CC)c2O)c(=O)n1C [Example 12],(IA)logP = 2.69^a)
23,CSc1nn(Cc2c(Cl)ccc(C(=O)c3cnn(C)c3O)c2Cl)c(=O)n1C [Example 55],logP = 1.67^a)
24,CCn1ncc(C(=O)c2ccc(C(F)(F)F)cc2Cn2nc(SC)n(C)c2=O)c1OCC(=O)c1ccccc1 [ID-45],logP = 3.19^a)
25,CCOc1nn(Cc2c(Cl)ccc(C(=O)c3cnn(CC)c3O)c2Cl)c(=O)n1C [Example 19],logP = 2.01^a)

# Reference: patent publication US7279444B2, “Substituted benzoylpyrazoles” (Bayer CropScience GmbH, priority 1999, dated 2007)
